Source: patent US10077284B2, “UBA5 inhibitors” (THE GOVERNING COUNCIL OF THE UNIVERSITY OF TORONTO, priority 2014, dated 2018)
“And” between values parts separate entries of the source, which are not always exact repeats. Identical values can stand only once. Like-named read-outs stand apart in the source and are kept apart here.

Assays:
[1] = system: UFM1 conjugation in Sk-Luci6 cells; details: Sk-Luci6, increasing concentrations, 72 h
Protocol: (§1) Cells were washed twice with cold PBS and protein extracts were prepared using RIPA buffer with a protease and phosphatase inhibitor cocktail (Roche #11836153001, #04906845001). Protein concentrations were determined using the BCA protein quantification technique (BCA Protein assay kit, Pierce). In each assay, 30 μg of whole cell protein extract was resolved on a 10% SDS-polyacrylamide gel and transferred to a PVDF membrane (Bio-Rad). The membranes were blocked with SuperBlock (Thermo scientific; No. 37515) for at least 1 hr followed by an overnight incubation in primary antibody. Blots were probed with antibodies against UBA5 (abcam; ab109227) and UFM-1 (abcam; ab09305) in a 1:1000 dilution, and anti-β-actin (1:5000 dilution; Cell Signaling, 3700S) was used as a loading control. […] The bands were visualized and analyzed using Image lab software (Bio-Rad).
(§2) The intracellular inhibition of UBA5 was evaluated in order to investigate its use as a molecular tool to study cellular UFMylation by UBA5 inactivation. […] The graphical representation of the intracellular inhibition of UFM1 protein conjugation (evaluated using Western Blot analysis, described in detail within the Materials and Methods submitted in May 2014) is shown in FIG. 26. […]

[2] = system: UFM1 conjugation in K562 cells; details: K562, increasing concentrations, 72 h
Protocol: as §1, §2

[3] = molecular target: T1, Ub activating enzyme (UAE) (Homo sapiens, UniProt P22314); experiment: UAE transthiolation assay (Ub transfer to His6-UbcH6); type: biochemical
T1 construct: purchased Boston Biochem
T1 sequence (P22314 1-1058): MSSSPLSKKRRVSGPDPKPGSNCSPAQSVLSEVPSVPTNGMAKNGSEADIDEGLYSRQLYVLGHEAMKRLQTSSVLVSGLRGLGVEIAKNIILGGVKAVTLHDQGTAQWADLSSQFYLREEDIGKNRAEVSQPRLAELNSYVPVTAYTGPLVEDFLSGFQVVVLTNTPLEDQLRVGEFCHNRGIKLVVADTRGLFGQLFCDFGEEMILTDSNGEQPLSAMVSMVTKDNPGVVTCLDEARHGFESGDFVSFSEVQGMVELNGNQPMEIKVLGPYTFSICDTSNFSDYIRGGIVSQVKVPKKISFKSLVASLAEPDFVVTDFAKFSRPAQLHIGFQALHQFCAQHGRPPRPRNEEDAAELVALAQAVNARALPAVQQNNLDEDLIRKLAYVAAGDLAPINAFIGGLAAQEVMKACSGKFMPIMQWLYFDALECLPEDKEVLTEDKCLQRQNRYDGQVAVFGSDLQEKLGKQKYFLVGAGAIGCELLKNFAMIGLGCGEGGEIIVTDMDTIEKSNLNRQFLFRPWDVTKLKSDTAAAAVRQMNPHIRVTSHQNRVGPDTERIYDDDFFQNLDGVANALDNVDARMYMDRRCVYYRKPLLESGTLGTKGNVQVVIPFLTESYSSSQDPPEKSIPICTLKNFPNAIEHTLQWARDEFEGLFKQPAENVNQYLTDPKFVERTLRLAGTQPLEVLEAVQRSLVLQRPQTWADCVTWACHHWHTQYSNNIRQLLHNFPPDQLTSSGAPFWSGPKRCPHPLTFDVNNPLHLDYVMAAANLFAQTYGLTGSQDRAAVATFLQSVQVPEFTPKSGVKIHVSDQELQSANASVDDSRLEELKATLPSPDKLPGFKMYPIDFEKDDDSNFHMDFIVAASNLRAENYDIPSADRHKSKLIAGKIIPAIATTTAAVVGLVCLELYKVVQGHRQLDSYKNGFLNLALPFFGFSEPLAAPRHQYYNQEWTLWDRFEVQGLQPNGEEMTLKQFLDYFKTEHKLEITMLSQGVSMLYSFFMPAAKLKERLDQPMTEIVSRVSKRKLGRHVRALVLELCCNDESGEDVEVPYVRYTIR
Protocol: (§5) Initial rates were recorded over 30 second time intervals from 0 to 2.5 min (normal kinetics) or 0 to 5 min (inhibition kinetics). Reactions were initiated by the addition of ATP and stopped using 4× Laemmli sample buffer (BioRad). The generated protein conjugates were separated on a 10% non-degenerating SDS-polyacrylamide gel (4-15% gels were used for the UAE transthiolaton assay), followed by Western blot analysis, with the exception of GST-UBA5 where protein bands were detected using Coomassie™ Brilliant Blue R-250 staining or Stain-Free gel imaging for the enzymatic assays (Bio-Rad). Transfers for the UAE and NAE immunoblots were performed using nitrocellulose membranes and blocking and blotting was performed as described above with cellular protein extracts. The His6-tagged Ub-UBCH6 complex was detected using an anti-His mouse monoclonal primary antibody (1:500, abcam). A rabbit anti-NEDD8 polyclonal primary antibody (1:500, BostonBiochem) was used for the detection of the E2-NEDD8 complexes. […] Inhibitory data was fit to a dose-response curve (Y=Bottom+(Top−Bottom)/(1+10^(X-Log IC50))) using GraphPad Prism 6.

[4] = molecular target: T2, GST-UBA5 (Homo sapiens, UniProt Q9GZZ9); experiment: UBA5 transthiolation assay (UFC1-UFM1 conjugate formation); type: biochemical
T2 construct: made in house
Protocol: as §5

[5] = system: Sk-Luci6, A549 and MRC-9 cells; details: all treated cells
Excerpt: Confluence of live cells was estimated visually under phase contrast microscopy.
Sk-Luci6, A549 and MRC-9 were each plated as 5×10^3 cells per well and grown in 10% serum on a 96 well plate. […] Cell numbers were obtained at 24 hr time points over a period of 72 hrs using trypan blue exclusion assay (BioRad; #145-0021) and counted using a hemocytometer.

[6] = system: NEDD8 downstream protein labeling in Sk-Luci6 cells; details: Sk-Luci6, increasing concentrations
Protocol: (§3) Cells were washed twice with cold PBS and protein extracts were prepared using RIPA buffer with a protease and phosphatase inhibitor cocktail (Roche #11836153001, #04906845001). Protein concentrations were determined using the BCA protein quantification technique (BCA Protein assay kit, Pierce). In each assay, 30 μg of whole cell protein extract was resolved on a 10% SDS-polyacrylamide gel and transferred to a PVDF membrane (Bio-Rad). The membranes were blocked with SuperBlock (Thermo scientific; No. 37515) for at least 1 hr followed by an overnight incubation in primary antibody. Blots were probed with antibodies against UBA5 (abcam; ab109227) and UFM-1 (abcam; ab09305) in a 1:1000 dilution, and anti-β-actin (1:5000 dilution; Cell Signaling, 3700S) was used as a loading control. Fluorescent labeled secondary antibodies anti-rabbit Alexa Fluor® 647 Conjugate (red, 1:5000) and anti-mouse Alexa Fluor® 488 Conjugate (green, 1:20,000) were used to detect bands (Cell Signaling; 4414S and 4408S, respectively). The bands were visualized and analyzed using Image lab software (Bio-Rad).
(§4) Bands were visualized using anti-rabbit Alexa Fluor® 647 (1:5000, for NEDD8 and NEDD8 conjugates) and anti-mouse Alexa Fluor® 488 (1:20,000, for actin) secondary antibodies.

[7] = system: NEDD8 downstream protein labeling in A549 cells; details: A549, increasing concentrations
Protocol: as §3, §4

T2 sequence (Q9GZZ9 whole entry): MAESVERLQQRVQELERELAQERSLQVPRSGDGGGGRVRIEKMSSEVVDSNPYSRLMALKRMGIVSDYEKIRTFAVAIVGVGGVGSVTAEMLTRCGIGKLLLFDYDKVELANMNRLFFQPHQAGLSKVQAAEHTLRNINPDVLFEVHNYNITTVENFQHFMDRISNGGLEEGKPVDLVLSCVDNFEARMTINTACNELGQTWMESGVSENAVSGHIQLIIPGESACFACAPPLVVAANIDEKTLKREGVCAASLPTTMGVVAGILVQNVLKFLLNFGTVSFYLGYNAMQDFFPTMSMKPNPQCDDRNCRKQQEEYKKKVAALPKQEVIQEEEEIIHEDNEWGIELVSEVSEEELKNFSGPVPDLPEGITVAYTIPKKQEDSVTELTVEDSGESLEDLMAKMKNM

Nc1ncnc2c1ncn2[C@@H]1O[C@H](C(=O)NCCCCCC(=O)N2CCNCCNCCNCC2)[C@@H](O)[C@H]1O.O=S(=O)([O-])C(F)(F)F.O=S(=O)([O-])C(F)(F)F.[Zn+2] [Compound 1.5.Zn, (2S,3S,4R,5R)—N-(6-(1,4,7,10-tetraazacyclododecan-1-yl)-6-oxohexyl)-5-(6-amino-9H-purin-9-yl)-3,4-dihydroxytetrahydrofuran-2-carboxamide zinc trifluoromethanesulfonate]
UFMylation levels [1]: Decreased UFMylation levels | UFMylation levels [2]: Decreased UFMylation levels | IC50 ([3]; n=3-6): 76.7 µM and 78.5 µM | selectivity for UBA5 over UAE ([3]; ratio of IC50): > 20 fold and ~20 fold | IC50 ([4]; Table 1, transthiolation enzymatic assay, read-out: IC50): 4 µM | IC50 ([4]; Table 5, n = 3, read-out: IC50): 4 µM | relative inhibitor activity against UBA5 ([4]; comparison between series): most potent zinc-coordinated complex | IC50 ([4]; read-out: IC50, inhibition of UFC1-UFM1 conjugate formation): 4.1 µM and 4 µM | cell death [5]: no cell death | intracellular NAE inhibition (NEDD8 labeling) [6]: no intracellular NAE inhibition | intracellular NAE inhibition (NEDD8 labeling) [7]: no intracellular NAE inhibition
